# Measured values reported in patent US12234207B2, “Halo-(3-(phenylsulfonyl)prop-1-enyl)pyridine derivative and use thereof” (Cureverse Incorporated, priority 2018, dated 2025).
# Key:
# [1] = test system: Nrf2; experiment: Nrf2 functional cell-based assay (DisoveRx), luminescence; details: for EC50: U2OS cells, 6 hours incubation, concentration that activates by 50% relative to the maximum effect
# Protocol: In order to confirm the pharmacological activity of the compounds synthesized according to Examples 1 to 18 of the present invention, the effects of the synthesized derivatives on inducing the activity of Nrf2, a major regulator of the defense against oxidative stress, were evaluated by constructing an Nrf2 functional cell-based assay (DisoveRx). Specifically, U2OS cells were used, and after the cell pellet was released with CP 0 reagent, the cells were loaded in an amount of 80 μL into a 96-well plate at a density of 1.5×10^4 cells/well and incubated for 24 hours. The compounds synthesized according to Examples 1 to 18 were diluted 3 times in DMSO at 7 different concentrations to prepare a stock solution. 10 μL. of each compound solution was mixed with 90 μL of CP 0 and added in an amount of 20 μL to each well of the 96-well plate, and each experiment was repeated three times. […] Substrate reagents 1 and 2 were added to the cell assay buffer and mixed, and then 50 μL of the substrate reagent was added to a 96-well plate per well, wrapped in foil, and incubated for 1 hour. Thereafter, the luminescence value was measured at all wavelengths and at integration time of 100 ms using a luminescence spectrophotometer (Molecular Devices). […] The results are shown in Table 5 below, and the efficacy of the compounds was compared as a percentage with respect to the sulforaphane-treated group. As another control group, a chalcone derivative, VSC2 ((F)-1-(2-((2-methoxyphenyl)sulfonyl)vinyl)-2-chlorobenzene, Woo et al., J. Med. Chem., 2014, 57:1473-1487), which has a parent structure similar to that of the present invention, and which has been confirmed to induce activation of Nrf2 through the structural changes of Keap1, was used.
# [2] = target: T1, CYP 2C9 (Homo sapiens, UniProt P11712); experiment: Inhibition of CYP activity in human liver microsomes, 2C9; format: in vitro ADME; details: 10 μM compound, human liver microsomes 0.25 mg/mL; % activity relative to the negative control
# T1 construct: from tissue; host or cells: human liver microsomes
# Protocol: (§1) Thereafter, the reaction was terminated by adding an acetonitrile solution containing an internal standard substrate (terfenadine), followed by centrifugation (14,000 rpm, 4° C.) for 5 minutes. Subsequently, the supernatant was injected into the LC-MS/MS system, and the metabolites of the substrate drugs were simultaneously analyzed to evaluate the inhibitory ability of these compounds on drug metabolic enzymes. The metabolites of each CYP isoenzyme indicator drug generated through the above reaction were analyzed using the Shimadzu Nexera XR system and TSQ vantage (Thermo). A Kinetex C18 column was used as the HPLC column, and distilled water containing 0.1% formic acid and acetonitrile containing 0.1% formic acid were used as the mobile phase. The generated metabolites were quantified using the quantification mode of multiple reaction monitoring (MRM), and data were analyzed with Xcalibur (version 1.6.1).
# [3] = target: T2, CYP 1A2 (Homo sapiens, UniProt P05177); experiment: Inhibition of CYP activity in human liver microsomes, 1A2; format: in vitro ADME; details: 10 μM compound, human liver microsomes 0.25 mg/mL; % activity relative to the negative control
# T2 construct: from tissue; host or cells: human liver microsomes
# T2 sequence (P05177 1-516): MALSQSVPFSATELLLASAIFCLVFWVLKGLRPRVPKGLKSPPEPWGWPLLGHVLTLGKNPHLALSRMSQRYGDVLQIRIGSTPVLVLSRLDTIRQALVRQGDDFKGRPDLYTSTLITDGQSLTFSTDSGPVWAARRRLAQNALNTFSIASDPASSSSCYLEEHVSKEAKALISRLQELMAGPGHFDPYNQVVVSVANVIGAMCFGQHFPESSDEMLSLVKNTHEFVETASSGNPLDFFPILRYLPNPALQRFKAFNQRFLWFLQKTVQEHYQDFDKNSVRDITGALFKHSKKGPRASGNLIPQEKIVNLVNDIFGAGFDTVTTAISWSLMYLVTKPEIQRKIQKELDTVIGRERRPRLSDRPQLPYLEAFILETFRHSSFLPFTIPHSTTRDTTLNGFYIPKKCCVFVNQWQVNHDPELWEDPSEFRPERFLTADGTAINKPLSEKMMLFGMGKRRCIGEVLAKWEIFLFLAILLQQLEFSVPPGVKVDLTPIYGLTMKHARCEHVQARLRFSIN
# Protocol: as §1
# [4] = target: T3, CYP 2D6 (Homo sapiens, UniProt P10635); experiment: Inhibition of CYP activity in human liver microsomes, 2D6; format: in vitro ADME; details: 10 μM compound, human liver microsomes 0.25 mg/mL; % activity relative to the negative control
# T3 construct: from tissue; host or cells: human liver microsomes
# Protocol: as §1
# [5] = target: T4, CYP 2C19 (Homo sapiens, UniProt P33261); experiment: Inhibition of CYP activity in human liver microsomes, 2C19; format: in vitro ADME; details: 10 μM compound, human liver microsomes 0.25 mg/mL; % activity relative to the negative control
# T4 construct: from tissue; host or cells: human liver microsomes
# Protocol: as §1
# [6] = target: T5, CYP 3A4 (Homo sapiens, UniProt P08684); experiment: Inhibition of CYP activity in human liver microsomes, 3A4; format: in vitro ADME; details: 10 μM compound, human liver microsomes 0.25 mg/mL; % activity relative to the negative control
# T5 construct: from tissue; host or cells: human liver microsomes
# Protocol: as §1
# [7] = Solubility in water; format: physicochemical
# From the text: In the development of new drugs, the solubility of drugs is one of the very important factors associated with the bio-absorption rate. […] In addition, drugs with low solubility may crystallize in tissues or cause serious toxicity, and thus, the FDA requires additional research results on oral drugs with low solubility. Furthermore, low solubility may also be the biggest cause of failure in the development of candidate materials.
# [8] = test system: Nrf2; experiment: Nrf2 functional cell-based assay (DisoveRx), luminescence; details: relative to Compound 15
# T5 sequence (P08684 whole entry): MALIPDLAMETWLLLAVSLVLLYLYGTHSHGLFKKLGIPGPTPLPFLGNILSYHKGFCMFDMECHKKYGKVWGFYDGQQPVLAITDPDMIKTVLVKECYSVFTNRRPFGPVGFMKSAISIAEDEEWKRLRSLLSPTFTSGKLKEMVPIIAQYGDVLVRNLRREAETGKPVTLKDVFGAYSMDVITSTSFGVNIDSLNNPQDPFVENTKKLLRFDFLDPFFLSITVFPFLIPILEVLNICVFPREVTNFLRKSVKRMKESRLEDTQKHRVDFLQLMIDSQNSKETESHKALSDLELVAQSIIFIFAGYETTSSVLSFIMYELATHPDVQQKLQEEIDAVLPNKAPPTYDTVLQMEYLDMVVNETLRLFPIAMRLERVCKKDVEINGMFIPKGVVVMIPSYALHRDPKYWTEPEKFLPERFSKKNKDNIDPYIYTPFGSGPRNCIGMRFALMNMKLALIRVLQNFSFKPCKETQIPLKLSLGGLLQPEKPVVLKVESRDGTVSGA
# T4 sequence (P33261 whole entry): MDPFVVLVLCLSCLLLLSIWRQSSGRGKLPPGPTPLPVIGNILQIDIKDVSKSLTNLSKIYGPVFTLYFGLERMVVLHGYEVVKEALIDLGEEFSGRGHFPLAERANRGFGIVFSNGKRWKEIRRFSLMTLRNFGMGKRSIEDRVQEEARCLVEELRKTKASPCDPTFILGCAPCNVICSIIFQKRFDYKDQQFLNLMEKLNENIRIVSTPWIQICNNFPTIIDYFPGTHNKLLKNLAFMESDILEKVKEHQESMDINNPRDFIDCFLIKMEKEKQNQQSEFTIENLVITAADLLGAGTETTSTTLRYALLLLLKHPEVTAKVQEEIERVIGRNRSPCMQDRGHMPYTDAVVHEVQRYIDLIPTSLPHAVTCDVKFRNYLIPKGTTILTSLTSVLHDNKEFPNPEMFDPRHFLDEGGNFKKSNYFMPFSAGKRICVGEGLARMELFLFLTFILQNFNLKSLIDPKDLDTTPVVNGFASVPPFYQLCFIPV
# T3 sequence (P10635 whole entry): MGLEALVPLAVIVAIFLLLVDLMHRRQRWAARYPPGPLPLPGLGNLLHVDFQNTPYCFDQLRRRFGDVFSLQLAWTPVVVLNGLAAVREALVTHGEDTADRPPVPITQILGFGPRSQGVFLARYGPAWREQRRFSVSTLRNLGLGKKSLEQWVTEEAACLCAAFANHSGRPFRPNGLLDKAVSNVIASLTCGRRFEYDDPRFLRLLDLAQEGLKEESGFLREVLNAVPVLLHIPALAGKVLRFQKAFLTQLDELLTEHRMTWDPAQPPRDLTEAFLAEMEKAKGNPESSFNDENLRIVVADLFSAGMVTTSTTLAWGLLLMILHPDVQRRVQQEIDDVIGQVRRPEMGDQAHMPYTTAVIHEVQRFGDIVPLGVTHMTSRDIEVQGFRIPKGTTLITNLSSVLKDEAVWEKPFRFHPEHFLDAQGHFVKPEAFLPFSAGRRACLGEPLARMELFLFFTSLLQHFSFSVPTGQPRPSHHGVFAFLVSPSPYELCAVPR
# T1 sequence (P11712 whole entry): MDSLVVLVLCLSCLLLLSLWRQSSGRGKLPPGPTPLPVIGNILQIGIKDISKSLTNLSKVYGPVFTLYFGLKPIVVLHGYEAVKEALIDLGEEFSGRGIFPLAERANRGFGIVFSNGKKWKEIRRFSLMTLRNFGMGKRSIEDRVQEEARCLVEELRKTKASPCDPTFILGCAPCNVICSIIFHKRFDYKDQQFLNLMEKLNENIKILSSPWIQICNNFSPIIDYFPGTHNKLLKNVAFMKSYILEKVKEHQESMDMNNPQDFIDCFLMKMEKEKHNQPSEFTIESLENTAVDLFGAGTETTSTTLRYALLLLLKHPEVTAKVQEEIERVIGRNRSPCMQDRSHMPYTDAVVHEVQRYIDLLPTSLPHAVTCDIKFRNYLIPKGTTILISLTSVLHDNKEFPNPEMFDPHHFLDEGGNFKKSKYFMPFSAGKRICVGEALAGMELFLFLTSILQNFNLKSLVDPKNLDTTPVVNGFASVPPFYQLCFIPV
smiles,measurement,setting,value
"O=S(=O)(/C=C/c1ncccc1F)c1cccc(Cl)c1 [Compound 8, (E)-2-(2-(3-chlorophenylsulfonyl)vinyl)-3-fluoropyridine]",EC50,[1],198 nM
"O=S(=O)(/C=C/c1ncccc1F)c1ccc(Cl)cc1 [Compound 9, (E)-2-(2-(4-chlorophenylsulfonyl)vinyl)-3-fluoropyridine]",EC50,[1],286 nM
"CN1CCN(C(=O)COc2ccc(S(=O)(=O)/C=C/c3ncccc3F)cc2)CC1.Cl [Compound 17, (E)-2-(4-(2-(3-fluoropyridin-2-yl)vinylsulfonyl)phenoxy)-1-(4-methylpiperazin-1-yl)ethanone hydrochloride]",CYP 2C9 activity,[2],122.0%
"O=S(=O)(/C=C/c1ncccc1Cl)c1cccc(Cl)c1 [Compound 11, (E)-3-chloro-2-(2-(3-chlorophenylsulfonyl)vinyl)pyridine]",EC50,[1],46 nM
"O=S(=O)(/C=C/c1ncccc1F)c1ccccc1Cl [Compound 7, (E)-2-(2-(2-chlorophenylsulfonyl)vinyl)-3-fluoropyridine]",EC50,[1],122 nM
"O=S(=O)(/C=C/c1ncccc1F)c1ccccc1F [Compound 1, (E)-3-fluoro-2-(2-(2-fluorophenylsulfonyl)vinyl)pyridine]",CYP 1A2 activity,[3],96.0%
same,CYP 2D6 activity,[4],87.0%
same,CYP 2C19 activity,[5],65.9%
same,CYP 2C9 activity,[2],100.0%
same,CYP 3A4 activity,[6],100.0%
same,EC50,[1],176 nM
"O=S(=O)(/C=C/c1ncccc1F)c1ccc(F)cc1 [Compound 3, (E)-3-fluoro-2-(2-(4-fluorophenylsulfonyl)vinyl)pyridine]",EC50,[1],542 nM
"COc1ccccc1S(=O)(=O)/C=C/c1cccnc1Cl [Comparative Example 2, (E)-2-chloro-3-(2-(2-methoxyphenylsulfonyl)vinyl)pyridine, reference compound]",solubility,[7],< 10 µg/mL
same,Effect of inducing Nrf2 activity as % of the level of Compound 15,[8],~10%
"O=S(=O)(/C=C/c1ncccc1Cl)c1ccc(F)cc1 [Compound 6, (E)-3-chloro-2-(2-(4-fluorophenylsulfonyl)vinyl)pyridine]",EC50,[1],231 nM
"O=S(=O)(/C=C/c1ncccc1Cl)c1ccccc1Cl [Compound 10, (E)-3-chloro-2-(2-(2-chlorophenylsulfonyl)vinyl)pyridine]",EC50,[1],26 nM
same,Nrf2 activation effect relative to sulforaphane,[1]; ratio to sulforaphane,≥ 15 times
"O=S(=O)(/C=C/c1cccnc1Cl)c1ccccc1Cl [Compound 14, (E)-2-chloro-3-(2-(2-chlorophenylsulfonyl)vinyl)pyridine]",EC50,[1],384 nM
"O=S(=O)(/C=C/c1ncccc1F)c1cccc(F)c1 [Compound 2, (E)-3-fluoro-2-(2-(3-fluorophenylsulfonyl)vinyl)pyridine]",EC50,[1],474 nM
"O=S(=O)(/C=C/c1ncccc1Cl)c1ccccc1F [Compound 4, (E)-3-chloro-2-(2-(2-fluorophenylsulfonyl)vinyl)pyridine]",CYP 1A2 activity,[3],96.0%
same,CYP 2D6 activity,[4],86.0%
same,CYP 2C19 activity,[5],47.3%
same,CYP 2C9 activity,[2],62.6%
same,CYP 3A4 activity,[6],100.0%
same,EC50,[1],30 nM
"O=S(=O)(/C=C/c1cccc(Cl)n1)c1ccccc1Cl [Compound 13, (E)-2-chloro-6-(2-(2-chlorophenylsulfonyl)vinyl)pyridine]",CYP 1A2 activity,[3],94.0%
same,CYP 2D6 activity,[4],100.0%
same,CYP 2C19 activity,[5],40.0%
same,CYP 2C9 activity,[2],100.0%
same,CYP 3A4 activity,[6],86.0%
same,EC50,[1],147 nM
"O=S(=O)(/C=C/c1ncccc1Cl)c1ccc(Cl)cc1 [Compound 12, (E)-3-chloro-2-(2-(4-chlorophenylsulfonyl)vinyl)pyridine]",EC50,[1],65 nM
"O=S(=O)(/C=C/c1ncccc1Cl)c1cccc(F)c1 [Compound 5, (E)-3-chloro-2-(2-(3-fluorophenylsulfonyl)vinyl)pyridine]",EC50,[1],84 nM
